Consider 11 molecules from patent publication US4137236A, “Amino-spiro[oxa(or thia)cycloalkane-penam]-carboxylic” (U C B, Societe Anonyme, priority 1977, dated 1979).

Assay [1] has as its system Escherichia coli K 12-44 R. Description: MIC in gelose culture medium (relative to reference penicillin). The note with it: E.COLI K 12-44R; reference ampicillin = 1. The assay is classed as cell-based. As to the method: This strain is a pleiotropic mutant of Escherichia coli K 12-44, which we have produced. It is not a producer of beta-lactamase but, nevertheless, it has a resistance to penicillins, probably as a result of the modification of the permeability of the cell membranes.
(§1) For a certain number of compounds of formula (XV), the minimum inhibitory concentration (MIC) was determined as follows:
(§2) The products to be tested are introduced in increasing concentrations into a gelose culture medium in Petri dishes. A multiple inoculator is used to deposit simultaneously drops (10 microliters) of inoculum (suspension of approximately 10^5 bacteria per ml) onto the surface of the medium. After incubation at 37° C for 24 hours, the growth of the bacteria is observed. By definition, the MIC is expressed by the minimum concentration of tested compound which inhibits the multiplication of the bacteia. In the following results, however, the MIC is given as being equal to 1 for the reference compounds and the activity figures given for the tested compounds of formula (XV) are, therefore, relative values. This presentation of the results is more correct and the most reproducible because, for one and the same bacterial strain, different MIC values can be observed if they are measured at different times. This is bound up with the "seasonal" variations in the strains and their nutrient medium.

For another assay, the target named is beta-lactamase P 99 (Enterobacter cloacae, UniProt P05364). Description: Hydrolysis kinetics: residual activity in the presence of beta-lactamase. Type of assay: biochemical, Gram-negative bacteria.
Chain of beta-lactamase P 99 (P05364 21-381): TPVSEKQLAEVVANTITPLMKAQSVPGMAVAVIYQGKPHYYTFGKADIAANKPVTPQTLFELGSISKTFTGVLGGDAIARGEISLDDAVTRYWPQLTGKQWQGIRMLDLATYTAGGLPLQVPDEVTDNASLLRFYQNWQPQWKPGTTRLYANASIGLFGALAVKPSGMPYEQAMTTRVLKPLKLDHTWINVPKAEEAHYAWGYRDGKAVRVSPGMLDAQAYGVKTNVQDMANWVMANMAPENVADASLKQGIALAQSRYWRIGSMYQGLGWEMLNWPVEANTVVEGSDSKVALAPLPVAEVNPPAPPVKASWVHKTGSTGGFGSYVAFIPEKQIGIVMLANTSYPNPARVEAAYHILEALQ
Assay [2] concerns Escherichia coli B-Ampi R. The assay can be described thus: MIC in gelose culture medium (relative to reference penicillin). The assay is classed as cell-based. The note with it: E.COLI B AMPI-R. As to the method: This is a mutant of the preceding strain which we have produced.
as §1, §2

Assay [3] deals with Staphylococcus aureus 6538. The assay is described as above. Type of assay: cell-based. The note with it: S.AUREUS 6538. The protocol:
This is a Gram-positive coccus which is particularly sensitive to penicillins and which has a low resistance mechanism. This strain of Staphylococcus is, therefore, representative of a maximum sensitivity of the species.
as §1, §2

For assay [4], the system named is Escherichia coli K 12-44 S. Described as above. The assay is classed as cell-based. The note with it: E.COLI K 12-44S; reference ampicillin = 1. The protocol: It is very sensitive to penicillins due to hyperpermeability.
as §1, §2

Assay [5] addresses beta-lactamase TEM (Escherichia coli, UniProt P62593). The assay can be described thus: Hydrolysis kinetics: residual activity in the presence of beta-lactamase. Type of assay: biochemical, Gram-negative bacteria.
A further assay concerns Escherichia coli K 12-44. Description: MIC in gelose culture medium (relative to reference penicillin). The assay is classed as cell-based. The note with it: E.COLI K 12-44; reference ampicillin = 1. As to the method:
This is a mutant of Escherichia coli K 12, the typical reference parent strain of the species. This mutant is not a producer of beta-lactamase.
as §1, §2

The next assay relates to Escherichia coli B. The description is as above. Type of assay: cell-based. The note with it: E.COLI B. The protocol: This is a well-known collection strain of Escherichia coli which produces very little beta-lactamase (of type I) and is, therefore, very sensitive to penicillins. As regards the classification of the beta-lactamases, use is here made of that proposed by M. H. RICHMOND and R. B. SYKES (see Advances in Microbial Physiology,9,(1973),pp.43 and 45).
as §1, §2

Assay [6] concerns Staphylococcus aureus 52149. Described as above. The note with it: S.AUREUS 52149. Type of assay: cell-based. As to the method:
This is a Gram-positive coccus, the intrinsic sensitivity of the receptor of which is equivalent to that of the preceding strain but which produces a beta-lactamase which is typical of the species and which renders it resistant to all the penicillins which are sensitive to hydrolysis.
as §1, §2

Assay [7] deals with beta-lactamase TEM. Description: Rate of hydrolysis by beta-lactamase measured as NaOH consumed per minute. The assay is classed as biochemical. The text has this: This method allows the dosage of the penicilloic acid resulting from the hydrolysis of the beta-lactam function by the lytic enzyme. The results of these kinetics, as given in the following Table, clearly show the superiority of compounds E and H as compared with pencillin G.

The mark [8] stands for this setting: reference 6-amino-penicillanic acid = 1.

Structures are written as SMILES.

Chain of beta-lactamase TEM (Escherichia coli, UniProt P62593) (P62593 24-286 limits assumed): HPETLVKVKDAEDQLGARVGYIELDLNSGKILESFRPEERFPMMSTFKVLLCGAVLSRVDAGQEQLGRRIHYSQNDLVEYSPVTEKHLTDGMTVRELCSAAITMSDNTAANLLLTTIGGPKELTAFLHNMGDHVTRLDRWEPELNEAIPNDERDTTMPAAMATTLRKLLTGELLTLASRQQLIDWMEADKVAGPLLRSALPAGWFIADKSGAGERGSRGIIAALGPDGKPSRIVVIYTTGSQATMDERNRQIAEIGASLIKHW

Take `NC(C(=O)NC1C(=O)N2C1SC1(CCSCC1)C2C(=O)O)c1ccccc1` (stereo not drawn) [Compound F, 6-(2"-amino-2"-phenylacetamido)-2',3',5',6'-tetrahydro-spiro[penam-2,4'-[4H]thiopyran]-3-carboxylic acid]: the “MIC relative to reference compound (=1)” value is > 1.5 in assay [1]; 3 in assay [2] (reference ampicillin = 1); 2 in [3] (reference ampicillin = 1); 15 in assay [4]; 10 in the assay on Escherichia coli K 12-44; 7 in the assay with Escherichia coli B (reference ampicillin = 1). Also, the “Resistance to beta-lactamase as compared with ampicillin (in words)” value on beta-lactamase P 99 and at beta-lactamase TEM [5] was “increased resistance” each time.
Consider `CC1(C)S[C@@H]2[C@H](NC(=O)[C@H](N)c3ccccc3)C(=O)N2[C@H]1C(=O)O` [Ampicillin, ampicillin, reference compound], for which the “MIC relative to reference compound (=1)” value (in [1]; in assay [2] (reference ampicillin = 1); in [3] (reference ampicillin = 1); in [4]; against Escherichia coli K 12-44; in the assay with Escherichia coli B (reference ampicillin = 1)) was 1 throughout. In addition, the “Residual activity in the presence of beta-lactamase” value (from here on “Residual activity in the presence”) at beta-lactamase P 99 (incubation time 0 minutes) is 500 µmol; on beta-lactamase P 99 (incubation time 3 minutes) it was 262 µmol; on beta-lactamase P 99 (incubation time 6 minutes) it was 138 µmol; at beta-lactamase P 99 (incubation time 9 minutes) it was < 50 µmol; on beta-lactamase P 99 (incubation time 9 minutes, listed as ampicillin), “no more detectable”; on beta-lactamase P 99 (incubation time 12 minutes), < 50 µmol. For the same molecule, the “Residual activity in the presence” value at beta-lactamase P 99 (incubation time 20 minutes) was < 50 µmol; at beta-lactamase TEM [5] (incubation time 0 minutes), 500 µmol; at beta-lactamase TEM [5] (incubation time 6 minutes), < 50 µmol; on beta-lactamase TEM [5] (incubation time 6 minutes, listed as ampicillin), “no more detectable”; at beta-lactamase TEM [5] (incubation time 12 minutes) it was < 50 µmol; on beta-lactamase TEM [5] (incubation time 18 minutes), < 50 µmol.
Turning to `NC(C(=O)NC1C(=O)N2C1SC1(CC[S+]([O-])CC1)C2C(=O)O)c1ccccc1` (stereo not drawn) [Compound J, 6-(2"-amino-2"-phenylacetamido)-2',3',5',6'-tetrahydro-spiro[penam-2,4'-[4H]thiopyran]-3-carboxylic acid 1'-oxide], the “MIC relative to reference compound (=1)” value in assay [1] stood at 2; in assay [2] (reference ampicillin = 1), 2; in [3] (reference ampicillin = 1) it was 2; in assay [4], 3; against Escherichia coli K 12-44 it was 3; in the assay with Escherichia coli B (reference ampicillin = 1) it was 1. Moreover, the “Resistance to beta-lactamase as compared with ampicillin (in words)” value at beta-lactamase P 99 and on beta-lactamase TEM [5] was “No change in behavior” throughout.
Take `O=C(Cc1ccccc1)N[C@@H]1C(=O)N2[C@@H]1SC1(CCOCC1)[C@@H]2C(=O)O` (relative stereo) [Compound A, 6-(2"-phenylacetamido)-2',3',5',6'-tetrahydro-spiro[penam-2,4'-[4H]pyran]-3-carboxylic acid]: the “MIC relative to reference compound (=1)” value in [6] (reference penicillin G = 1) turned out to be 2; in assay [2] (reference penicillin G = 1) it was 2; in assay [3] (reference penicillin G = 1) it was 2; in the assay with Escherichia coli B (reference penicillin G = 1) it was 4.
Consider `COc1cccc(OC)c1C(=O)N[C@@H]1C(=O)N2[C@@H]1SC(C)(C)[C@@H]2C(=O)O` [Methicillin, methicillin, reference compound], for which, in assay [6] (reference methicillin = 1), the “MIC relative to reference compound (=1)” value stood at 1.
With `Cc1onc(-c2ccccc2)c1C(=O)N[C@@H]1C(=O)N2[C@@H]1SC1(CCOCC1)[C@@H]2C(=O)O` (relative stereo) [Compound C, 6-(5"-methyl-3"-phenyl-4"-isoxazolecarboxamido)-2',3',5',6'-tetrahydro-spiro[penam-2,4'-[4H]pyran]-3-carboxylic acid], the “MIC relative to reference compound (=1)” value in [6] (reference oxacillin = 1) came out at 1; in assay [3] (reference oxacillin = 1) it was 2.
Take `COc1cccc(OC)c1C(=O)N[C@@H]1C(=O)N2[C@@H]1SC1(CCSCC1)[C@@H]2C(=O)O` (relative stereo) [Compound G, 6-(2",6"-dimethoxybenzamido)-2',3',5',6'-tetrahydro-spiro[penam-2,4'-[4H]thiopyran]-3-carboxylic acid]: the “MIC relative to reference compound (=1)” value in assay [6] (reference methicillin = 1) is on record as 0.5.
As to `CC1(C)S[C@@H]2C(N)C(=O)N2[C@H]1C(=O)O` (stereo partly drawn) [Penicillanic acid, 6-amino-penicillanic acid, reference compound], the “MIC relative to reference compound (=1)” value (in assay [6] (setting [8]); in assay [2] (setting [8]); in [3] (setting [8]); with Escherichia coli B (setting [8])) was 1 in each case.
Turning to `Cc1onc(-c2ccccc2)c1C(=O)N[C@@H]1C(=O)N2[C@@H]1SC(C)(C)[C@@H]2C(=O)O` [Oxacillin, oxacillin, reference compound], the “MIC relative to reference compound (=1)” value in assay [6] (reference oxacillin = 1) and in assay [3] (reference oxacillin = 1) was 1 each time.
Regarding `CC1(C)S[C@@H]2[C@H](NC(=O)Cc3ccccc3)C(=O)N2[C@H]1C(=O)O` [Penicillin G, penicillin G, reference compound], in the assay on beta-lactamase TEM [7], the “Rate of hydrolysis: microliters 0.005 N NaOH consumed per minute” value is listed as 3.83 microliters 0.005 N NaOH per m. For the same molecule, the “MIC relative to reference compound (=1)” value in assay [6] (reference penicillin G = 1) and in assay [3] (reference penicillin G = 1) was 1 throughout.
Regarding `N[C@@H](C(=O)NC1C(=O)N2C1SC1(CCOCC1)C2C(=O)O)c1ccccc1` (single isomer, unassigned) [Compound B, 6-(2"-amino-2"-phenylacetamido)-2',3',5',6'-tetrahydro-spiro[penam-2,4'-[4H]pyran]-3-carboxylic acid], the “MIC relative to reference compound (=1)” value in assay [1] was found to be 1.5; in [2] (reference ampicillin = 1) it was 1; against Escherichia coli K 12-44, 3.5; against Escherichia coli B (reference ampicillin = 1), 3.5. In addition, the “Remaining activity as percentage of initial” value on beta-lactamase P 99 (after incubation for 9 minutes) amounted to 67%; on beta-lactamase TEM [5] (after incubation for 6 minutes), 87%. The “Residual activity in the presence” value at beta-lactamase P 99 (incubation time 0 minutes) amounted to 500 µmol; on beta-lactamase P 99 (incubation time 3 minutes) it was 458 µmol; on beta-lactamase P 99 (incubation time 6 minutes), 422 µmol; at beta-lactamase P 99 (incubation time 9 minutes) it was 334 µmol; on beta-lactamase P 99 (incubation time 12 minutes) it was 312 µmol; on beta-lactamase P 99 (incubation time 20 minutes), 300 µmol. The “Residual activity in the presence” value on beta-lactamase TEM [5] (incubation time 0 minutes) was 500 µmol; at beta-lactamase TEM [5] (incubation time 2 minutes) it was 469 µmol; at beta-lactamase TEM [5] (incubation time 4 minutes) it was 453 µmol; on beta-lactamase TEM [5] (incubation time 6 minutes), 438 µmol; at beta-lactamase TEM [5] (incubation time 12 minutes) it was 334 µmol; at beta-lactamase TEM [5] (incubation time 18 minutes) it was 225 µmol.
